ChEMBL document CHEMBL1201862, “PubChem BioAssay data set” (2004)
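Test compounds were applied to cells in 96-well plates for 48 hours at 5 doses. At the GI50, growth is halved.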 The source made the active and inactive calls. Rule as the data show it: active = GI50 up to about 1.1 µM and inactive = higher.

Key:
Assay in all cases: inhibition of tumour cell growth, NCI panel, 48 h
SF-539 = system: SF-539
BT-549 = system: BT-549
SNB-75 = system: SNB-75
DU-145 = system: DU-145
OVCAR-4 = system: OVCAR-4
UACC-62 = system: UACC-62
SF-268 = system: SF-268
SR = system: SR
A498 = system: A498
TK-10 = system: TK-10
MDA-MB-231 = system: MDA-MB-231
OVCAR-3 = system: OVCAR-3
NCI-H460 = system: NCI-H460
UO-31 = system: UO-31
Malme-3M = system: Malme-3M
NCI-H23 = system: NCI-H23
NCI-H522 = system: NCI-H522
PC-3 = system: PC-3
UACC-257 = system: UACC-257
NCI-H226 = system: NCI-H226
HCT-116 = system: HCT-116
SK-MEL-28 = system: SK-MEL-28
COLO 205 = system: COLO 205
LOX IMVI = system: LOX IMVI
RXF 393 = system: RXF 393
IGROV-1 = system: IGROV-1
ACHN = system: ACHN
786-0 = system: 786-0
SK-OV-3 = system: SK-OV-3
SN12C = system: SN12C
Hs-578T = system: Hs-578T
SW-620 = system: SW-620
SF-295 = system: SF-295
M14 = system: M14
A549 = system: A549
HOP-92 = system: HOP-92
SK-MEL-5 = system: SK-MEL-5
MCF7 = system: MCF7
OVCAR-5 = system: OVCAR-5
K562 = system: K562
HCC 2998 = system: HCC 2998
HT-29 = system: HT-29
MDA-MB-435 = system: MDA-MB-435
MDA-N = system: MDA-N
OVCAR-8 = system: OVCAR-8
NCI/ADR-RES = system: NCI/ADR-RES
HOP-62 = system: HOP-62
U-251 = system: U-251
HCT-15 = system: HCT-15
SNB-19 = system: SNB-19
SK-MEL-2 = system: SK-MEL-2
HL-60 = system: HL-60
CCRF-CEM = system: CCRF-CEM
MOLT-4 = system: MOLT-4
CAKI-1 = system: CAKI-1
RPMI-8226 = system: RPMI-8226
EKVX = system: EKVX
KM12 = system: KM12

CCCCCCN1CCc2c(C)c(C#N)c3nc4ccccc4n3c21
GI50 (SF-539): > 100 µM (inactive)
GI50 (BT-549): 65.3 µM (inactive)
GI50 (SNB-75): 32.4 µM (inactive)
GI50 (DU-145): > 100 µM (inactive)
GI50 (OVCAR-4): 25.9 µM (inactive)
GI50 (UACC-62): 30.1 µM (inactive)
GI50 (SF-268): > 100 µM (inactive)
GI50 (SR): > 100 µM (inactive)
GI50 (A498): 76.6 µM (inactive)
GI50 (TK-10): > 100 µM (inactive)
GI50 (MDA-MB-231): 5.73 µM (inactive)
GI50 (OVCAR-3): 11.6 µM (inactive)
GI50 (NCI-H460): 16 µM (inactive)
GI50 (UO-31): > 100 µM (inactive)
GI50 (Malme-3M): 83.2 µM (inactive)
GI50 (NCI-H23): 45 µM (inactive)
GI50 (NCI-H522): 31.4 µM (inactive)
GI50 (PC-3): 7.82 µM (inactive)
GI50 (UACC-257): 16.3 µM (inactive)
GI50 (NCI-H226): > 100 µM (inactive)
GI50 (HCT-116): 16.5 µM (inactive)
GI50 (SK-MEL-28): 33.7 µM (inactive)
GI50 (COLO 205): 29.9 µM (inactive)
GI50 (LOX IMVI): 22.2 µM (inactive)
GI50 (RXF 393): 20.7 µM (inactive)
GI50 (IGROV-1): > 100 µM (inactive)
GI50 (ACHN): > 100 µM (inactive)
GI50 (786-0): 42.9 µM (inactive)
GI50 (SK-OV-3): > 100 µM (inactive)
GI50 (SN12C): > 100 µM (inactive)
GI50 (Hs-578T): 8.73 µM (inactive)
GI50 (SW-620): 23.2 µM (inactive)
GI50 (SF-295): > 100 µM (inactive)
GI50 (M14): 63.5 µM (inactive)
GI50 (A549): 50.2 µM (inactive)
GI50 (HOP-92): 22.5 µM (inactive)
GI50 (SK-MEL-5): 11.4 µM (inactive)
GI50 (MCF7): 14.5 µM (inactive)
GI50 (OVCAR-5): > 100 µM (inactive)
GI50 (K562): > 100 µM (inactive)
GI50 (HCC 2998): 49.3 µM (inactive)
GI50 (HT-29): 18.5 µM (inactive)
GI50 (MDA-MB-435): 17 µM (inactive)
GI50 (MDA-N): 22.7 µM (inactive)
GI50 (OVCAR-8): 29.2 µM (inactive)
GI50 (NCI/ADR-RES): > 100 µM (inactive)
GI50 (HOP-62): 92.9 µM (inactive)
GI50 (U-251): 12.4 µM (inactive)
GI50 (HCT-15): 27.6 µM
GI50 (SNB-19): 80.4 µM (inactive)
GI50 (SK-MEL-2): 22.2 µM (inactive)
GI50 (HL-60): 11.7 µM (inactive)

O=C1/C(=C/c2cccc(F)c2)CCCc2ccccc21
GI50 (SF-539): 17.4 µM (inactive)
GI50 (BT-549): 17.6 µM (inactive)
GI50 (CCRF-CEM): 15.5 µM (inactive)
GI50 (SNB-75): 17.3 µM (inactive)
GI50 (DU-145): 16.9 µM (inactive)
GI50 (OVCAR-4): 16.7 µM (inactive)
GI50 (UACC-62): 15.3 µM (inactive)
GI50 (SF-268): 12.9 µM (inactive)
GI50 (SR): 14.7 µM (inactive)
GI50 (TK-10): 15.7 µM (inactive)
GI50 (MOLT-4): 17.7 µM (inactive)
GI50 (MDA-MB-231): 18.3 µM (inactive)
GI50 (OVCAR-3): 15.3 µM (inactive)
GI50 (NCI-H460): 17.4 µM (inactive)
GI50 (UO-31): 16.3 µM (inactive)
GI50 (Malme-3M): 11.6 µM (inactive)
GI50 (NCI-H23): 20.4 µM (inactive)
GI50 (NCI-H522): 12.9 µM (inactive)
GI50 (PC-3): 15.7 µM (inactive)
GI50 (CAKI-1): 17.7 µM (inactive)
GI50 (UACC-257): 16.9 µM (inactive)
GI50 (NCI-H226): 14.6 µM (inactive)
GI50 (HCT-116): 15.6 µM (inactive)
GI50 (SK-MEL-28): 16.6 µM (inactive)
GI50 (COLO 205): 20.3 µM (inactive)
GI50 (LOX IMVI): 16.5 µM (inactive)
GI50 (IGROV-1): 12.2 µM (inactive)
GI50 (ACHN): 19.1 µM (inactive)
GI50 (RPMI-8226): 14.9 µM (inactive)
GI50 (786-0): 17.2 µM (inactive)
GI50 (SK-OV-3): 27.2 µM (inactive)
GI50 (SN12C): 17.9 µM (inactive)
GI50 (Hs-578T): 13.2 µM (inactive)
GI50 (SW-620): 16.9 µM (inactive)
GI50 (SF-295): 16.1 µM (inactive)
GI50 (M14): 13.9 µM (inactive)
GI50 (A549): 17.7 µM (inactive)
GI50 (HOP-92): 15.8 µM (inactive)
GI50 (MCF7): 14.6 µM (inactive)
GI50 (OVCAR-5): 15.1 µM (inactive)
GI50 (K562): 15.1 µM (inactive)
GI50 (HCC 2998): 14.7 µM (inactive)
GI50 (HT-29): 13.2 µM (inactive)
GI50 (EKVX): 15 µM (inactive)
GI50 (KM12): 12.1 µM (inactive)
GI50 (MDA-MB-435): 16.2 µM (inactive)
GI50 (OVCAR-8): 15.8 µM (inactive)
GI50 (NCI/ADR-RES): 16.5 µM (inactive)
GI50 (HOP-62): 14.3 µM (inactive)
GI50 (U-251): 16.2 µM (inactive)
GI50 (HCT-15): 15.9 µM
GI50 (SNB-19): 16 µM (inactive)
GI50 (SK-MEL-2): 16.2 µM (inactive)
GI50 (HL-60): 21.5 µM (inactive)
